According to patent publication US10501452B2, “Lactam compound derivative and application thereof” (NHWA PHARMA. CORPORATION, priority 2015, dated 2019):
Where two headings read alike, the source gives them in different places.

How the values were obtained:
catalepsy in mice = experiment: Catalepsy assay; settings: for Catalepsy/Apomorphine induced clambering / Catalepsy/MK-801 induced high activity: mice, ratio of ED50 values; for EPS in effective dosage (in words): mouse, in vivo
Protocol: (§1) The durations of the mice to maintain the posture with the two forepaws on the bars were recorded, and 30 s of spasticity without moving was considered as the positive response. In the case the forepaws of the mice were not put down persistently, the observation was terminated at 60 s. The numbers of animals with positive response in each of the compound dosage groups were counted.

Catalepsy assay = settings: both, Kunming, mouse, in vivo, po
Protocol: as §1

[1] = test system: MK-801 induced high activity in mice; experiment: MK-801 induced high activity; assay type: in vivo; settings: for ED50: Mus musculus, po; for improvement of MK-801 induced high activity (in words): compared with risperidone
Protocol: Ascorbic acid was provided by Sinopharm Chemical Reagent Co. Ltd.
Subsequently, the spontaneous activities of the mice of each group in 90 min were measured.

[2] = test system: Apomorphine induced clambering in mice; experiment: Apomorphine induced clambering assay of mice; assay type: in vivo; settings: mice; for ED50: Mus musculus, po, read-out: Apomorphine induced clambering (ED50, po, mg/kg); for improvement of apomorphine induced clambering symptoms (in words): compared with risperidone
Protocol: Healthy KM mice, male, with body weight of 18-22 g, were provided by Qinglongshan Animal Cultivation Center, Nanjing.
Apomorphine provided by Sigma Company was dissolved in 0.9% NaCl (containing 0.1% vitamin C) before use, and was freshly formulated before use.
Vitamin C, F20061113, was provided by Sinopharm Chemical Reagent Co. Ltd.
Instruments: self-made clambering cage, chronograph.
Procedures: apomorphine induced clambering assay of mice
After 5 min of adaptation, the behavior of the mice at 10-11, 20-21, and 30-31 min after the injection of apomorphine were observed and scored.

D2 = D2 (Rattus norvegicus (Rat), UniProt P61169); experiment: D2 receptor binding assay (3H-Spiperone)
Sequence of D2 (P61169 whole entry): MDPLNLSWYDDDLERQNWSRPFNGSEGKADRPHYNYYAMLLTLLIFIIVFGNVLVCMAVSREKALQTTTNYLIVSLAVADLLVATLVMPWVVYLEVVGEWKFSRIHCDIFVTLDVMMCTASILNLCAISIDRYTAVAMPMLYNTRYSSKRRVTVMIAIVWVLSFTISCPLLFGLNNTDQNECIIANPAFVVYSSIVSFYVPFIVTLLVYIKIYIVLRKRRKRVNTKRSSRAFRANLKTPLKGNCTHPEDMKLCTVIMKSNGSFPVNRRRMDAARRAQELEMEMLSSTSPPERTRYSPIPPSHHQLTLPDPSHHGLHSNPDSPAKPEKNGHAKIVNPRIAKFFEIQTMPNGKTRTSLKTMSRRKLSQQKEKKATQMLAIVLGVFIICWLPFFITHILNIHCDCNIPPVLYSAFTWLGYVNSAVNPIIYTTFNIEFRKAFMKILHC
Protocol: Rats were decapitated. Striatum of brain was rapidly taken on ice, 3 ml of buffer (0.05 M Tris-HCl buffer, containing NaCl 120 mM, KCl 5 mM, MgCl2 1 mM, CaCl2 1 mM) was added, homogenization was conducted, and then 5 ml of buffer was then added. The weight of the homogenized tubes were adjusted using a balance, and centrifugation was conducted. The supernatant was discarded, and 3 ml of buffer was added. Vortex mixer was used for blending, and then 5 ml of buffer was added. Centrifugation was conducted and repeated 3 times. The supernatant was discarded after centrifugation was completed, and the pellets were stored at −80° C. for future use.
Beckman LS-6500 Multi-function Liquid Scintillation Counter was used.
(1) The prepared membrane was applied with appropriate amount of buffer, and homogenizer was used for evenly dispersing. 15 tubes were mixed into a 100 ml container, and appropriate amount of buffer was added to give 50 ml of membrane suspension, which was reserved for future use.
(§6) (2) 100 μL of membrane preparation and 100 μL of buffer were added into each reaction tube.
(3) 100 μL of buffer was added into the total binding tube (TB), 100 μL of Butaclamol (final concentration 10^−5M) was added into the nonspecific binding tube (NB), 100 μL of the test compound (final concentration 10^−5M) was added into the specific binding tube (SB) of each test compound.
(5) Each of the reaction tubes was incubated at 37° C. for 20 min. After the reaction was completed, the bound ligands were rapidly filtered under reduced pressure, and sufficiently washed with ice-chilled assay buffer. The filter was taken out and put into a 3 ml scintillation vial, and 2 ml of toluene scintillation cocktail was added and blended.
(6) The scintillation vials were put into Liquid Scintillation Counter for counting. Inhibition rate(I%)=(Total binding tube cpm−compound cpm)/(Total binding tube cpm−nonspecific binding tube cpm)×100%
Each assay for the compounds was conducted in duplicate for two individual tests.

5-HT1A = 5-HT1A (Rattus norvegicus (Rat), UniProt P19327); experiment: 5-HT1A receptor binding assay (3H-8-OH-DPAT); settings: rat cortex membrane, 3H-8-OH-DPAT
Sequence of 5-HT1A (P19327 whole entry): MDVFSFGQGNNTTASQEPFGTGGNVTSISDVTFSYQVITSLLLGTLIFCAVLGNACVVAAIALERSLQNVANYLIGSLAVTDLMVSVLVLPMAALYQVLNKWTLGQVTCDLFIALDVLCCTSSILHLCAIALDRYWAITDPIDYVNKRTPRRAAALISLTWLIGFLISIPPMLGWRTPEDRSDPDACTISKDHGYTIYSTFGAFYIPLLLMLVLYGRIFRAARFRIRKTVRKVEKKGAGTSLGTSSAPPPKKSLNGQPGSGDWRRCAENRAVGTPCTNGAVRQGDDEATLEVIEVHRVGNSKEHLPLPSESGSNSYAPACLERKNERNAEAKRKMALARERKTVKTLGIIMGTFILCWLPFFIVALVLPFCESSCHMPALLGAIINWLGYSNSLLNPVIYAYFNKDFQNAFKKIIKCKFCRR
Protocol: Rats were decapitated. […] Incubation at 37° C. was conducted for 10 min. […] Centrifugation was conducted and repeated 3 times.
(§2) Materials for the Receptor Binding Assay

Histamine H1 receptor = Histamine H1 receptor (Cavia porcellus (Guinea pig), UniProt P31389); experiment: Histamine H1 receptor binding assay (3H-pyrilamine); settings: guinea pig cerebellum membrane, 3H-pyrilamine
Sequence of Histamine H1 receptor (P31389 whole entry): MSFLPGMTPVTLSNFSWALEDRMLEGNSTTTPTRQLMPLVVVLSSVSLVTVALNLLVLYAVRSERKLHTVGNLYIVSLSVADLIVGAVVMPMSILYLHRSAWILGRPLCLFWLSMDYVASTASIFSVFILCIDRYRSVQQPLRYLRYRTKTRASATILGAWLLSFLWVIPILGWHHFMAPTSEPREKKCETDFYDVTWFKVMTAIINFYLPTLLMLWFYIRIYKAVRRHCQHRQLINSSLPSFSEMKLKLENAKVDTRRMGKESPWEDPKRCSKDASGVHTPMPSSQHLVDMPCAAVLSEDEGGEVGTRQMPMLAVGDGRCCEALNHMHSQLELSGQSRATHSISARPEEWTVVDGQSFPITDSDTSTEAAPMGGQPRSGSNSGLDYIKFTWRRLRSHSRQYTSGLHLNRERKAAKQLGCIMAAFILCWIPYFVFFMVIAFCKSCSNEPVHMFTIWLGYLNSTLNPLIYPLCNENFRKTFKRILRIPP
Protocol: Preparation of Histamine H1 Receptor Membrane
Guinea pigs were decapitated. […] Vortex mixer was used for blending. Centrifugation was conducted at 48000 g, 4° C. for 10 min. The supernatant was discarded to give pellets, and buffer was added again for washing. Centrifugation was conducted and repeated 3 times.
as §2
(2) 100 μL of membrane preparation was added into each reaction tube.

5-HT7 receptor = 5-HT7 receptor (Rattus norvegicus (Rat), UniProt P32305); experiment: 5-HT7 receptor binding assay ([3H]-5-CT); settings: rat hypothalamus membrane, [3H]-5-CT
Sequence of 5-HT7 receptor (P32305 whole entry): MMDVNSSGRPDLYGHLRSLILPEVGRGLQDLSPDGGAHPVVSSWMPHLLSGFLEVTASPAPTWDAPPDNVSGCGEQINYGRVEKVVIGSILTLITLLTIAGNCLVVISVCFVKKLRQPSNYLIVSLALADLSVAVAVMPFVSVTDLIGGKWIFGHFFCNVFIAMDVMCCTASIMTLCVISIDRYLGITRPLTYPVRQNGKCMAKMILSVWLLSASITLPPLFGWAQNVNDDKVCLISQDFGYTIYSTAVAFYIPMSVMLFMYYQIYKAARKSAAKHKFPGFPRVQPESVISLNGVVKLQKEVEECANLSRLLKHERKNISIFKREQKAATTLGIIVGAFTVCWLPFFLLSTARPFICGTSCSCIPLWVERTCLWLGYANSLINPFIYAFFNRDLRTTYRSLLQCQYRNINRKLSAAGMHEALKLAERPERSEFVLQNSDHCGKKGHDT
Protocol: Adult SD rats were decapitated. […] Centrifugation was conducted (repeated 3 times).
as §2

[3] = Acute toxicity study (mice); assay type: in vivo; settings: both sexes, KM, mouse, in vivo, po, intragastric
Protocol: (§3) Example 41: Acute Toxicity Study
(§4) Limit test of sequential assay: KM rats or mice (half male and half female) were randomly divided into several groups (with 2-5 mice in each group), which were respectively the 2000 mg/kg groups for each compound, and the solvent group. 0.2 ml/10 g were administered intragastrically. The deaths of the animals in 3 days were observed. In the case 3 or more animals survived in 3 days without notable abnormity in their life states, the observation was continued until the assay was completed in 7 days. In the case 3 or more animals died in 3 days, the method of median lethal dose was used to determine the LD50.
Pre-assay for the method of the median lethal dose: KM mice (half male and half female) were randomly divided into several groups (with 4 mice in each group), which were respectively the 500 mg/kg, 200 mg/kg, 50 mg/kg groups for each compound, and the solvent group. 0.2 ml/10 g were administered intragastrically, and the deaths of the animals in 1-3 days were observed.
(§5) Results: The compound of the invention has relatively low acute toxicity.

[4] = test system: conditioned avoidance response in rats; experiment: animal or person; assay type: in vivo, rat; settings: rat; for ED50: po, intragastric, 1 hour after administration, read-out: Rat CAR ED50; for Therapeutic index: LD50 versus CAR ED50; for performance in the rat CAR model (in words): compared with risperidone
Protocol: […] of SD rats, male.
Firstly, training the rats with shuttle box:
(1) The rats were allowed for adaption for five minutes;
(2) Conditioned stimulus (CS, light and noise) were started and lasted for 20 s, and at the tenth second, unconditioned stimulus (US, 1.5 mA electric shock) was performed and lasted for 10 s;
(3) Training was conducted 30 times per day for 9 days. The interval between two trainings was set randomly ranged from 20 to 30 s;
(4) Observation indicators:
The animal ran to another compartment during the conditioning stimulus was recorded as “avoidance”;
Animals ran to another compartment during the electric shock was recorded as “escape”;
Grouping of the qualified rats: the qualified rats were divided into negative control group, positive drug groups of each dosage, and compound groups of each dosage according to the principle of randomization, 8 in each group.
Administration Method: Corresponding solvent was administered intragastrically to the negative control group; corresponding dosages of positive drugs were administered intragastrically to the positive drug groups of each dosage; and corresponding dosages of compounds were administered intragastrically to the compound groups of each dosage.
CAR Assay: A CAR assay was performed 1 hour after intragastric administration. The method was the same as the CAR training. The observation indicators were the number of avoidances, the number of escapes, and the number of escape failures.
Statistical Data Processing: Assay data are presented as mean±standard deviation (Mean±SD), the comparison was performed by a combination of one-way ANOVA with post-hoc LSD. The ED50 was calculated using the probit method.

5-HT2A = 5-HT2A (Rattus norvegicus (Rat), UniProt P14842); experiment: 5-HT2A receptor binding assay ([3H]-Ketanserin)
Sequence of 5-HT2A (P14842 whole entry): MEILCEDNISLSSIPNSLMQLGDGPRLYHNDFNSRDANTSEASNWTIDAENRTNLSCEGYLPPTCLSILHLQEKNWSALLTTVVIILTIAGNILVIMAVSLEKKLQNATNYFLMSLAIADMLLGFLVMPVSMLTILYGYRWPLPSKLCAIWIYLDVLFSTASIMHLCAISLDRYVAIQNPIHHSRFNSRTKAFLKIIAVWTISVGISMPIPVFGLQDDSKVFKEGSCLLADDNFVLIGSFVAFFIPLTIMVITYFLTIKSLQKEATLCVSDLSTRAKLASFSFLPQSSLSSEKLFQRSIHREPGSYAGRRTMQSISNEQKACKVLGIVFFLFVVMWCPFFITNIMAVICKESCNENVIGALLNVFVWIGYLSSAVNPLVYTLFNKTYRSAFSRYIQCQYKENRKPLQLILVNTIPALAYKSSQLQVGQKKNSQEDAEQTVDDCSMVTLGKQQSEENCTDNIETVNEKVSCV
Protocol: Rats were decapitated. Cortex of brain was rapidly taken on ice, and 3 ml of buffer (0.05 M Tris-HCl buffer: 6.05 g of Tris was dissolved in 1000 ml of double-distilled water, and concentrated HCl was used to adjust to pH 7.5) was added, homogenization was conducted, and then 5 ml of buffer was added. Incubation was conducted at 37° C. for 10 min, the weight of the tubes were adjusted using a balance after incubation. Centrifugation was conducted at 12000 rpm, 4° C. for 20 min, the supernatant was discarded, and 3 ml of buffer was added. Vortex mixer was used for blending, and then 5 ml of buffer was added. Centrifugation was conducted (repeated 3 times). After the centrifugation, the supernatant was discarded, and the pellets were stored at −80° C. for future use.
(1) The prepared membrane was applied with buffer, and homogenizer was used for evenly dispersing. 15 tubes were mixed into a 100 ml container, and appropriate amount of buffer was added to give 50 ml of membrane suspension, which was reserved for future use.
as §6
(3) 100 μL of buffer was added into the total binding tube (TB), 100 μL of Methysergide (final concentration 10^−5M) was added into the nonspecific binding tube (NB), 100 μL of the test compound (final concentration 10^−5M) was added into the specific binding tube (SB) of each test compound.
(5) Each of the reaction tubes was incubated at 37° C. for 15 min. After the reaction was completed, the bound ligands were rapidly filtered under reduced pressure, and sufficiently washed with ice-chilled assay buffer. The filter was taken out and put into a 3 ml scintillation vial, and 2 ml of toluene scintillation cocktail was added and blended.
(6) The scintillation vial were put into Liquid Scintillation Counter for counting. Inhibition rate(I%)=(Total binding tube cpm−compound cpm)/(Total binding tube cpm−nonspecific binding tube cpm)×100%

[5] = Acute toxicity study (rats); settings: both sexes, KM, in vivo, po, 2000 mg/kg; rat, intragastric
Protocol: as §3, §4, §5

[6] = read-out: Ki (nM) D2, rat striatum membrane, 3H-Spiperone
[7] = read-out: Ki (nM) 5-HT2A, rat cortex membrane, [3H]-Ketanserin

Compound	Catalepsy/Apomorphine induced clambering (catalepsy in mice)	Catalepsy/MK-801 induced high activity (catalepsy in mice)	ED50 (Catalepsy assay) [mg/kg]	ED50 [1] [mg/kg]	ED50 [2] [mg/kg]	Ki (D2; [6]) [nM]	EPS in effective dosage (in words) (catalepsy in mice)	Ki (5-HT1A) [nM]	improvement of MK-801 induced high activity (in words) [1]	Ki (Histamine H1 receptor) [nM]	Ki (5-HT7 receptor) [nM]	LD50 [3] [mg/kg]	ED50 [4] [mg/kg]	Therapeutic index [4]	performance in the rat CAR model (in words) [4]	Ki (5-HT2A; [7]) [nM]	LD50 at 3 days [5] [mg/kg]	improvement of apomorphine induced clambering symptoms (in words) [2]	Ki (D2) [nM]	Ki (5-HT2A) [nM]
CN1CCN(C2=Nc3cc(Cl)ccc3Nc3ccccc32)CC1 [clozapine, reference compound]	>5.58	>21.93	> 50	2.28	17.9															
COc1ccccc1N1CCN(CCCOc2ccc3c(c2)C(=O)N(C)CC3)CC1 [Compound 22, 7-(3-(4-(2-methoxyphenyl)piperazin-1-yl)propoxy)-2-methyl-3,4-dihydroisoquinolin-1(2H)-one]	273	433	52	0.12	0.19	9.6	do not cause EPS	6.5	significantly improve	> 2000	28.1	311	0.49	404	markedly better than risperidone	3.2	198	effectively improve		
CN1CCc2ccc(OCCCN3CCN(c4nsc5ccccc45)CC3)cc2C1=O [Compound 14, 7-(3-(4-(benzo[d]isothiazol-3-yl)piperazin-1-yl)propoxy)-2-methyl-3,4-dihydroisoquinolin-1(2H)-one]	533	457	32	0.07	0.06	6.9	do not cause EPS	8.8	significantly improve	1360	16.8	202	0.65	238	markedly better than risperidone	7.2	155	effectively improve		
CN1CCc2ccc(OCCCN3CCN(c4ncccn4)CC3)cc2C1=O [Compound 24, 2-methyl-7-(3-(4-(pyrimidin-2-yl)piperazin-1-yl)propoxy)-3,4-dihydroisoquinolin-1(2H)-one]	214	261	47	0.18	0.22	11.9		8.8		> 2000	9.9	190	1.02	143		7.5	146			
O=C1NCCc2ccc(OCCCN3CCC(c4noc5cc(F)ccc45)CC3)cc21 [Compound 12, 7-(3-(4-(6-fluorobenzo[d]isoxazol-3-yl)piperidin-1-yl)propoxy)-3,4-dihydroisoquinolin-1(2H)-one]						10.4		19.3		> 2000	8.9					5.5				
CN1CCc2ccc(OCC(O)CN3CCC(c4noc5cc(F)ccc45)CC3)cc2C1=O (stereo not drawn) [Compound 4, 7-(3-(4-(6-fluorobenzo[d]isoxazol-3-yl)piperidin-1-yl)-2-hydroxypropoxy)-2-methyl-3,4-dihydroisoquinolin-1(2H)-one]						15.1		3.9		> 2000	10.2					15.9				
O=C(CCCN1CCC(O)(c2ccc(Cl)cc2)CC1)c1ccc(F)cc1 [haloperidol, reference compound]	4.89	4.40	0.44	0.1	0.08															
O=C1CCc2ccc(OCCCCN3CCC(c4noc5cc(F)ccc45)CC3)cc2N1 [E, reference compound]								23.2		178	35.6								5.6	12.7
CN1CCc2ccc(OCCCN3CCN(c4ccccc4F)CC3)cc2C1=O [Compound 20, 7-(3-(4-(2-fluorophenyl)piperazin-1-yl)propoxy)-2-methyl-3,4-dihydroisoquinolin-1(2H)-one]						54.8		24.5		> 2000	29.9					32.1				
Cc1nc2ccc(OCCCN3CCN(c4cccc(C(F)(F)F)c4)CC3)cc2c(=O)n1C [Compound 31, 2,3-dimethyl-6-(3-(4-(3-(trifluoromethyl)phenyl)piperazin-1-yl)propoxy)quinazolin-4(3H)-one]						21.8		19		> 2000	8.3					9.8				
Cc1nc2n(c(=O)c1CCN1CCC(c3noc4cc(F)ccc34)CC1)CCCC2 [risperidone, reference compound]																	113			
CC1CN(C)C(=O)c2cc(OCCCN3CCC(c4noc5cc(F)ccc45)CC3)ccc21 (stereo not drawn) [Compound 10, 7-(3-(4-(6-fluorobenzo[d]isoxazol-3-yl)piperidin-1-yl)propoxy)-2,4-dimethyl-3,4-dihydroisoquinolin-1(2H)-one]						5.8		4.6		> 2000	8.4					12.9				
Cc1cc(OCCCN2CCC(c3noc4cc(F)ccc34)CC2)cc2c1CCN(C)C2=O [Compound 8, 7-(3-(4-(6-fluorobenzo[d]isoxazol-3-yl)piperidin-1-yl)propoxy)-2,5-dimethyl-3,4-dihydroisoquinolin-1(2H)-one]						8.7		2.8		> 2000	6.7					2.4				
